# Experimental data: US11712430B2, “Formulated cannabis oil powder by nanoemulsification, methods of producing and uses thereof” (KARNAK TECHNOLOGIES, LLC, priority 2018, dated 2023)
# Assay: Complete dissolution of agents to obtain the aqueous phase
# Format: physicochemical
# Conditions: as in Example 1, Stage 1
# Experimental: 0.25 gr ammonium glycyrrhizinate, (Sigma, 50531-50G, cas: 53956-04-0), 2 gr Maltodextrin, (Sigma, 419699-500G, cas: 9050-36-6), 2 gr sucrose, (Sigma, 59378-500G, cas: 57-50-1) and 14.3 gr triple distilled water (TDW) were mixed using a magnetic stirrer for 10 min at 35-40° C. until a complete dissolution and acquisition of an aqueous solution.
# It should be noted that among the various selected agents used for the preparation of the various formulations of the invention so far, cyclodextrin was proven to be incompatible in terms of a complete dissolution to obtain the aqueous phase as in Example 1, Stage 1.
substance,measurement,value
cyclodextrin,compatibility in terms of a complete dissolution to obtain the aqueous phase,incompatible
